Test results: US20150105252A1, “SUBSTITUTED PYRAZOLES AS HERBICIDES” (E I DU PONT DE NEMOURS AND COMPANY, priority 2013, published 2015)

Columns and labels:
soybean = test: Test F preemergence; assay type: in vivo, Glycine max
From the text: (§1) Seeds of plant species selected from corn (Zea mays), soybean (Glycine max), velvetleaf (Abutilon theophrasti), lambsquarters (Chenopodium album), wild poinsettia (Euphorbia heterophylla), pigweed, palmer (palmer pigweed, Amaranthus palmeri), common waterhemp (Amaranthus rudis), surinam grass (Brachiaria decumbens), large crabgrass (Digitaria sanguinalis), crabgrass, Brazil (Brazilian crabgrass, Digitaria horizontalis), fall panicum (Panicum dichotomiflorum), giant foxtail (Setaria faberii), green foxtail (Setaria viridis), goosegrass (Eleusine indica), johnsongrass (Sorghum halepense), common ragweed (Ambrosia elation), barnyardgrass (Echinochloa crus-galli), southern sandbur (Cenchrus echinatus), arrowleaf sida (Sida rhombifolia), Italian ryegrass (Lolium multiflorum), dayflower, VA (Virginia (VA) dayflower, Commelina virginica), field bindweed (Convolvulus arvensis), cocklebur (common cocklebur, Xanthium strumarium), morningglory (Ipomoea coccinea), nightshade (eastern black nightshade, Solanum ptycanthum), kochia (Kochia scoparia), yellow nutsedge (Cyperus esculentus), and hairy beggarticks (Bidens pilosa), were planted into a silt loam soil and treated preemergence with test chemicals formulated in a non-phytotoxic solvent mixture which included a surfactant.
(§2) At the same time, plants from these crop and weed species and also horseweed (Canada horseweed, Conyza canadensis), smartweed (ladysthumb smartweed, Polygonum persicaria), waterhemp_RES1, (ALS & Triazine resistant common waterhemp, Amaranthus rudis), and waterhemp_RES2, (ALS & HPPD resistant common waterhemp, Amaranthus rudis) were treated with postemergence applications of test chemicals formulated in the same manner. Plants ranged in height from 2 to 18 cm for postemergence treatments (1- to 4-leaf stage). Treated plants and controls were maintained in a greenhouse for 14 to 21 days, after which time all species were compared to controls and visually evaluated. Plant response ratings, summarized in Table F, are based on a scale of 0 to 100 where 0 is no effect and 100 is complete control. A dash (-) response means no test result.

lambsquarters = test: Test F preemergence; assay type: in vivo, Chenopodium album
From the text: as §1, §2

morningglory = test: Test F preemergence; assay type: in vivo, Ipomoea coccinea
From the text: as §1, §2

kochia = test: Test A preemergence; assay type: in vivo, Kochia scoparia
Method in brief: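 Greenhouse test in loam soil/sand blend; compounds formulated in non-phytotoxic solvent with surfactant, applied as preemergence directed soil spray or postemergence to plants 2–10 cm tall at one- to two-leaf stage. Injury rated visually versus untreated controls after approximately 10 days on a 0 (no effect) to 100 (complete control) scale.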

foxtail, green = test: Test C postemergence; assay type: in vivo, Setaria viridis; settings: for Foxtail, Green plant response rating: scale 0 to 100
From the text: (§3) Seeds of plant species selected from blackgrass (Alopecurus myosuroides), ryegrass, Italian (Italian ryegrass, Lolium multiflorum), wheat (winter wheat, Triticum aestivum), galium (catchweed bedstraw, Galium aparine), corn (Zea mays), crabgrass, large (large crabgrass, Digitaria sanguinalis), foxtail, giant (giant foxtail, Setaria faberii), johnsongrass (Sorghum halepense), lambsquarters (Chenopodium album), morningglory (Ipomoea coccinea), nutsedge, yellow (yellow nutsedge, Cyperus esculentus), pigweed (redroot pigweed, Amaranthus retroflexus), ragweed (common ragweed, Ambrosia elation), soybean (Glycine max), barnyardgrass (Echinochloa crus-galli), oilseed rape (Brassica napus), waterhemp (common waterhemp, Amaranthus rudis), oat, wild (wild oat, Avena fatua), kochia (Kochia scoparia), Surinam grass (Brachiaria decumbens), foxtail, green (green foxtail, Setaria viridis), goosegrass (Eleusine indica), bromegrass, downy (downy bromegrass, Bromus tectorum), nightshade (eastern black nightshade, Solanum ptycanthum), cocklebur (common cocklebur, Xanthium strumarium), cupgrass, woolly (woolly cupgrass, Eriochloa villosa), bermudagrass (Cynodon dactylon), sunflower, (common oilseed sunflower, Helianthus annuus), Russian thistle (Salsola kali), and velvetleaf (Abutilon theophrasti) were planted into a blend of loam soil and sand and treated preemergence with test chemicals formulated in a non-phytotoxic solvent mixture which included a surfactant.
(§4) At the same time, plants selected from these crop and weed species and also chickweed (common chickweed, Stellaria media), canarygrass (littleseed canarygrass, Phalaris minor), and deadnettle (henbit deadnettle, Lamium amplexicaule), were planted in pots containing Redi-Earth® planting medium (Scotts Company, 14111 Scottslawn Road, Marysville, Ohio 43041) comprising spaghnum peat moss, vermiculite, wetting agent and starter nutrients and treated with postemergence applications of test chemicals formulated in the same manner. Plants ranged in height from 2 to 18 cm (1- to 4-leaf stage) for postemergence treatments. Treated plants and controls were maintained in a greenhouse for 13 to 15 days, after which time all species were compared to controls and visually evaluated. Plant response ratings, summarized in Table C, are based on a scale of 0 to 100 where 0 is no effect and 100 is complete control. A dash (-) response means no test result.

sunflower = test: Test C preemergence; assay type: in vivo, Helianthus annuus
From the text: as §3, §4

bromegrass, downy = test: Test C preemergence; assay type: in vivo, Bromus tectorum
From the text: as §3, §4

oat, wild = test: Test C preemergence; assay type: in vivo, Avena fatua
From the text: as §3, §4

goosegrass = test: Test C preemergence; assay type: in vivo, Eleusine indica
From the text: as §3, §4

[1] = Preemergence, 31 g ai/ha, scale 0 to 100
[2] = Preemergence, 62 g ai/ha, scale 0 to 100
[3] = preemergence, 8 g ai/ha, scale 0 to 100, 100 is complete control
[4] = Preemergence, 125 g ai/ha, scale 0 to 100
[5] = preemergence, 16 g ai/ha, scale 0 to 100, 100 is complete control
[6] = Preemergence, 16 g ai/ha, scale 0 to 100
[7] = Preemergence, 250 g ai/ha, scale 0 to 100
[8] = 125 g ai/ha, visual injury, 0 to 100 scale, approx. 10 days
[9] = 500 g ai/ha, visual injury after approx. 10 days, 0 to 100 scale (0 no effect, 100 complete control)
[10] = postemergence, 250 g ai/ha, scale 0 to 100 (0 no effect, 100 complete control)
[11] = postemergence, 125 g ai/ha, scale 0 to 100, 0 no effect, 100 complete control
[12] = preemergence, 31 g ai/ha, scale 0 to 100 (0 no effect, 100 complete control), 13 to 15 days
[13] = preemergence, 62 g ai/ha, 13 to 15 days, scale 0 to 100, 0 = no effect, 100 = complete control
[14] = preemergence, 125 g ai/ha, scale 0 to 100, 0 is no effect, 100 is complete control

`CCc1cc(-c2ccc(C(F)(F)F)cc2)nn1Cc1ccnc(C(F)(F)F)c1` [Compound 110] was tested, and the “Plant response rating, Soybean” value (soybean; [1]) was 15, the “Plant response rating, Soybean” value (soybean; [2]) was 0 and the “Plant response rating, Soybean” value (soybean; [3]) was 0. The “Plant response rating, Lambsquarters” value (lambsquarters; [1]) was 65, the “Plant response rating, Lambsquarters” value (lambsquarters; [2]) was 50 and the “Plant response rating, Lambsquarters” value (lambsquarters; [4]) was 100. For the same molecule, the “Plant response rating, Lambsquarters” value (lambsquarters; [3]) was 0, the “Plant response rating, Lambsquarters” value (lambsquarters; [5]) was 0 and the “Plant response rating, Morningglory” value (morningglory; [1]) was 10. The “Plant response rating, Morningglory” value (morningglory; [2]) was 10, the “Plant response rating, Morningglory” value (morningglory; [4]) was 60 and the “Plant response rating, Morningglory” value (morningglory; [3]) was 0. The “Plant response rating, Morningglory” value (morningglory; [5]) was 20.

For `CCCc1cc(C(=O)NC(C)C)nn1Cc1cc(C(F)(F)F)nn1C` [Compound 201], the “Plant response rating, Soybean” value (soybean; [6]) was 0, the “Plant response rating, Soybean” value (soybean; [4]) was 40 and the “Plant response rating, Soybean” value (soybean; [7]) was 40. For the same molecule, the “Plant response rating, Soybean” value (soybean; [5]) was 0, the “Plant response rating, Lambsquarters” value (lambsquarters; [2]) was 70 and the “Plant response rating, Lambsquarters” value (lambsquarters; [4]) was 100. The “Plant response rating, Lambsquarters” value (lambsquarters; [7]) was 100, the “Plant response rating, Lambsquarters” value (lambsquarters; [5]) was 0 and the “Plant response rating, Morningglory” value (morningglory; [6]) was 0. The “Plant response rating, Morningglory” value (morningglory; [2]) was 25, the “Plant response rating, Morningglory” value (morningglory; [4]) was 65 and the “Plant response rating, Morningglory” value (morningglory; [7]) was 80. For the same molecule, the “Plant response rating, Morningglory” value (morningglory; [5]) was 0.

In the case of `CCc1cc(C(=O)NOC(C)C)nn1Cc1ccnc(OC(F)F)c1` [Compound 126], the “Kochia plant response rating” value (kochia; [8]) is reported as 100 and the “Kochia plant response rating” value (kochia; [9]) is reported as 100.

`CCc1cc(C(=O)NCC(F)(F)F)nn1Cc1ccnc(Br)c1` [Compound 224] was tested, and the “Plant response rating, Soybean” value (soybean; [2]) was 25, the “Plant response rating, Soybean” value (soybean; [4]) was 20 and the “Plant response rating, Soybean” value (soybean; [7]) was 50. For the same molecule, the “Plant response rating, Lambsquarters” value (lambsquarters; [2]) was 98, the “Plant response rating, Lambsquarters” value (lambsquarters; [4]) was 98 and the “Plant response rating, Lambsquarters” value (lambsquarters; [7]) was 100. For the same molecule, the “Plant response rating, Morningglory” value (morningglory; [2]) was 0, the “Plant response rating, Morningglory” value (morningglory; [4]) was 0 and the “Plant response rating, Morningglory” value (morningglory; [7]) was 25.

`CCOc1cc(C(=O)NCC(F)(F)F)nn1Cc1ccnc(OC(F)F)c1` [Compound 128] was tested, and the “Kochia plant response rating” value (kochia; [8]) was 100 and the “Kochia plant response rating” value (kochia; [9]) was 100.

For `CCONC(=O)c1cc(CC)n(Cc2cccc(OC(F)(F)F)c2)n1` [Compound 72], the “Foxtail, Green plant response rating” value (foxtail, green; Postemergence, 31 g ai/ha) was 20, the “Foxtail, Green plant response rating” value (foxtail, green; postemergence, 62 g ai/ha) was 40 and the “Plant response rating, Foxtail, Green” value (foxtail, green; [10]) was 40. The “Plant response rating, Foxtail, Green” value (foxtail, green; [11]) was 40, the “Plant response rating (scale of 0 to 100), Sunflower” value (sunflower; Preemergence, 250 g ai/ha) was 20 and the “Sunflower plant response rating” value (sunflower; [12]) was 0. The “Plant response rating, Sunflower” value (sunflower; [13]) was 0, the “Sunflower plant response rating” value (sunflower; [14]) was 5 and the “Plant response rating (scale of 0 to 100), Bromegrass, Downy” value (bromegrass, downy; Preemergence, 250 g ai/ha) was 90. The “Bromegrass, Downy plant response rating” value (bromegrass, downy; [12]) was 5, the “Plant response rating, Bromegrass, Downy” value (bromegrass, downy; [13]) was 45 and the “Bromegrass, Downy plant response rating” value (bromegrass, downy; [14]) was 80. The “Plant response rating (scale of 0 to 100), Oat, Wild” value (oat, wild; Preemergence, 250 g ai/ha) was 85, the “Oat, Wild plant response rating” value (oat, wild; [12]) was 30 and the “Plant response rating, Oat, Wild” value (oat, wild; [13]) was 60. The “Oat, Wild plant response rating” value (oat, wild; [14]) was 80, the “Plant response rating (scale of 0 to 100), Goosegrass” value (goosegrass; Preemergence, 250 g ai/ha) was 98 and the “Goosegrass plant response rating” value (goosegrass; [12]) was 75. The “Plant response rating, Goosegrass” value (goosegrass; [13]) was 98 and the “Goosegrass plant response rating” value (goosegrass; [14]) was 98.

For `CCc1cc(C(=O)NCC(F)(F)F)nn1Cc1cccc(OC(F)(F)F)c1` [Compound 20], the “Foxtail, Green plant response rating” value (foxtail, green; Postemergence, 31 g ai/ha) was 20, the “Plant response rating, Foxtail, Green” value (foxtail, green; [10]) was 60 and the “Plant response rating, Foxtail, Green” value (foxtail, green; postemergence, 62 g ai/ha, scale 0 to 100, 0 no effect, 100 complete control) was 30. The “Plant response rating, Foxtail, Green” value (foxtail, green; [11]) was 55.
